Literature values in patent US20110142834A1, “TREATMENT OF HEARING AND BALANCE IMPAIRMENTS USING COMPOUNDS HAVING ERYTHROPOIETIN ACTIVITY” (Edison Pharmaceuticals, Inc., priority 2008, published 2011).

patients displaying some vestibular impairment (2 grams daily for 60 to 120 days): ~75%
Structure (SMILES): [H]/N=C(/N)N[C@H]1[C@H](O)[C@@H](O)[C@H](O[C@@H]2O[C@@H](C)[C@](O)(C=O)[C@H]2O[C@@H]2O[C@@H](CO)[C@H](O)[C@@H](O)[C@@H]2NC)[C@@H](N/C(N)=N\[H])[C@@H]1O [streptomycin]
incidence of vestibular impairment (1 gram per day): 25%
